# Results: US8796230B2, “Ivermectin antagonizes ethanol inhibition in P2X4 receptors” (University of Southern California, priority 2010, dated 2014)
# Residue numbers refer to the chain shown, from its start. Entries after “also recorded” stand apart in the source; their conditions may differ. Read-outs that look alike come from different tables or passages of the source.
# Columns and labels:
# uninjected oocytes = experiment: Resting membrane currents in uninjected oocytes
# Description: IVM and alcohol applications. […] To allow comparison of the effects of IVM with those of ethanol, the same co-application protocol was used for IVM.
# P2X4Rs = target: T1, P2X4Rs (Rattus norvegicus, UniProt P51577); experiment: Surface biotinylation and Western blotting of P2X4R surface expression in oocytes; format: cell-based; conditions: 3 μM IVM in the presence of 1 μM ATP; 20 s and 2 min
# T1 construct: expressed in transfected cells; host or cells: Xenopus laevis oocytes injected with cRNA
# T1 sequence (P51577 1-388): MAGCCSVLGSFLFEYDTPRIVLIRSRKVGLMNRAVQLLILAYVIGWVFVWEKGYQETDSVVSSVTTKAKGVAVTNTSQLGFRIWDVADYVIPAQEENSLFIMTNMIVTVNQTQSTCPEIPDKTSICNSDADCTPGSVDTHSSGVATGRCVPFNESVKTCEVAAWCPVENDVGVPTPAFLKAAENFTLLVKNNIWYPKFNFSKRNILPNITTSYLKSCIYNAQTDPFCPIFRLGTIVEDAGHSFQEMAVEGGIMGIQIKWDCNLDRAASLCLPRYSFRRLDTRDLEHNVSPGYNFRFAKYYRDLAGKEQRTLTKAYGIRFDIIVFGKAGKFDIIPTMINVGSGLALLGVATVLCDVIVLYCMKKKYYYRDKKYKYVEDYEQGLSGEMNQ
# Description: Surface biotinylation and Western blotting. Oocytes expressing P2X4R cRNA were treated with 3 μM IVM in the presence and absence of 1 μM ATP and incubated with 1.0 mg/ml membrane-impermeable sulfo-NHS-SS-biotin (Pierce Biotechnology, Rockford, Ill.) for 1 hr on ice. After lysis, the biotinylated proteins were precipitated by overnight incubation with streptavidin beads (Pierce Biotechnology) and extracted using SDS sample buffer. Protein lysates of total and biotinylated fractions were then run on 10% SDS-PAGE, transferred to PVDF membranes and blotted with a rabbit P2X4R antibody (Millipore, Temecula, Calif.). Following incubation with the secondary anti-rabbit antibody, the P2X4R bands were visualized using enhanced chemiluminescence (Pierce Biotechnology).
# rat WT P2X4 receptor = target: T2, rat WT P2X4 receptor (Rattus norvegicus, UniProt P51577); experiment: Comparison of Ivermectin analogues: two-electrode voltage-clamp of ATP EC10 currents in rat WT P2X4 receptor in Xenopus oocytes; format: cell-based; conditions: for potentiation of ATP-induced currents, concentration dependence: co-application and pre-incubation (FIGS. 10C and 10D)
# T2 construct: expressed in transfected cells; host or cells: Xenopus laevis oocytes injected with cRNA
# T2 sequence (P51577 1-388): T1 sequence (P51577 1-388)
# Description: Isolation of Xenopus Oocytes and cRNA Injections. Xenopus laevis frog (Nasco; WI) maintenance, oocyte isolation and cRNA injections were performed according to protocols as described previously (11,12,24).
# Transcription of cDNA to cRNA. XL-Blue E. coli competent cells (Stratagene; CA) were transformed with rat WT P2X4 receptor cDNAs cloned into pcDNA3 vector (Invitrogen; CA). The isolated DNA was linearized and transcribed to result in capped cRNA, which was dissolved in nuclease-free water and stored at −70° C. until injection.
# Whole-Cell Voltage Clamp Recording. […] Electrodes were prepared and used to impale the oocyte that was continuously perfused at the rate of 3-4 ml/min by extracellular bathing solution per procedures previously published (11,12,24). The peak currents recorded using a strip-chart recorder (Barnstead/Thermolyne, Iowa) were used in data analysis. All experiments were performed at room temperature (20-23° C.).
# Experimental Procedures. Maximal ATP currents were induced by 15 s application of 100 μM ATP. Submaximal ATP concentrations (EC10) were applied for 20 s to generate currents. Ethanol and ABM/IVM were co-applied with ATP EC10. Washout time between drug applications was at least 5 min.
# Data Analysis. Data are obtained from several batches of at least 3 different oocyte batches and are presented as percentage change of peak currents evoked by ATP EC10 alone±SEM. GraphPAD Prism software (San Diego, Calif.) was used for data analysis and curve fitting. Statistical analysis was performed using Student's unpaired t-test and significance set at P<0.05.
# [1] = target: T3, mutant P2X4Rs at position 336 (Rattus norvegicus, UniProt P51577, M336Q); experiment: Two-electrode voltage-clamp of ATP-induced currents in mutant P2X4Rs with substitutions at position 336 in Xenopus oocytes; format: cell-based; conditions: Met336 substituted with Gln; IVM 3 μM
# T3 construct: expressed in transfected cells; host or cells: Xenopus laevis oocytes injected with cRNA
# T3 sequence (P51577 1-388 M336Q): T1 sequence (P51577 1-388) with M336Q
# Description: (§1) Site-directed mutagenesis and cRNA synthesis. The cDNA of rat P2X4R (GenBank accession No. X87763) was sub-cloned into pcDNA3 vector (Invitrogen, Carlsbad, Calif.). Mutagenesis was performed to introduce single point mutations using QuickChange IIXL Site-Directed Mutagenesis kit (Stratagene, La Jolla, Calif.). The sequences of mutant constructs were verified using automated DNA sequencing (USC/Norris DNA Core Facility, University of Southern California).
# (§2) Whole-cell voltage-clamp recordings. Two-electrode voltage-clamp recordings of oocytes were performed using a Warner Instruments Model OC-725C oocyte clamp amplifier (Hamden, Conn.) using procedures published earlier^5,6.
# (§3) Experimental procedures. To induce currents and test the effects of alcohols and IVM in the present experiments, maximal (100 μM) or submaximal ATP concentrations (EC5-10 furthered referred to as EC10) were used. It has been previously shown that the use of EC10 can maximize the effects of ethanol and minimize receptor desensitization 18,19. The washout time between agonist applications was at least 5-10 min to allow complete re-sensitization of the receptors^18, 19.
# (§4) Effects of the drugs were tested after a stable response to ATP EC10 was obtained. After a sufficient washout time (5-15 min), the cells were challenged with the same ATP EC10 to ensure an accurate response to the drugs and to asses any change in the baseline level.
# (§5) IVM and alcohol applications.
# (§6) Data analysis. Data are obtained from several batches of oocytes of at least 3 different frogs and are expressed as mean±SEM. Ethanol (hexanol) and/or IVM effects are presented as percentage change of peak currents evoked by ATP EC10 alone. Data were fitted to a concentration-response curve by using the following logistic equation: I=Imax*[drug]/([drug]+(EC50)), where I/Imax is the percentage of the maximum obtainable response, EC50 is the concentration producing a half-maximal response. GraphPAD Prism software (San Diego, Calif.) was used for data analysis and curve fitting. Statistical analysis was performed using unpaired t-test with significance set at P<0.05.
# [2] = test system: mutant P2X4Rs at position 336; experiment: as above; format: cell-based, rat; conditions: IVM 3 μM
# Description: as §1, §2, §3, §4, §5, §6
# rat P2X4R = target: T4, rat P2X4R (Rattus norvegicus, UniProt P51577); experiment: Two-electrode voltage-clamp of ATP EC10-induced currents in WT P2X4Rs expressed in Xenopus oocytes; format: cell-based
# T4 construct: expressed in transfected cells; host or cells: Xenopus laevis oocytes injected with cRNA
# T4 sequence (P51577 1-388): T1 sequence (P51577 1-388)
# Description: Isolation of Xenopus Laevis oocytes and cRNA injections. Xenopus oocytes were isolated and maintained as described previously^18,19. All procedures for the maintenance of Xenopus Laevis frogs and oocyte isolation were approved by The Institutional Animal Care and Use Committee of the University of Southern California. Stage V and VI oocytes were used for cRNA (0.01-5 ng) injections using Nanoject II Nanoliter injection system (Drummond Scientific, Broomall, Pa.) one day after isolation. Injected oocytes were stored at 16° C. in incubation medium containing (in mM), […], theophylline 0.6, pyruvic acid 2.5, with 1% horse serum and 0.05 mg/ml gentamycin. The oocytes were used in electrophysiological recordings for 3-10 days after cRNA injections.
# as §1
# The DNA of WT or mutant receptors was linearized and transcribed using the mMESSAGE mMACHINE kit (Ambion, Austin, Tex.) to result in cRNA, which was stored at −70° C. until injection.
# as §2, §3, §4, §5, §6
# C57BL/6 mice = experiment: Two-bottle choice ethanol (10E versus water) intake in C57BL/6 mice
# Description: Based on the initial experiments, a second study was conducted using a similar research design strategy with the following changes. Using a within subjects design, alcohol drinking was allowed to stabilize (based on DOSE approximately 10 g/kg) with a new set of C57Bl mice (n=15). […] On intervening days, the mice were injected with saline. After 3 days of saline injections (allowing for alcohol drinking to restabilize back to ‘baseline’ levels), the mice were injected with a single, higher dose of IVM (5.0 mg/kg). Once again drinking was allowed to re-established back to baseline.
# male C57BL/6 mice = conditions: for decrease in alcohol consumption: 10% alcohol, 24 hour access
# P2X2R = experiment: Effect of n-chain alcohols on P2X2R function (unpublished data); format: cell-based
# Description: This possibility was investigated by testing the effects of IVM on another n-chain alcohol. Previous investigations report that short chain alcohols potentiate, whereas long chain alcohols inhibit, native nicotinic acetylcholine receptors (nAChRs) contained in neuromuscular or Torpedo preparations^26-28. This alcohol crossover occurred at approximately butanol in nAChRs expressed in Xenopus oocytes^29. […] It is believed that testing an alcohol that produced potentiation, rather than inhibition, would provide an alternative method of determining if the interaction between ethanol and IVM represented an additive effect.
# [3] = test system: mutant P2X4Rs at position 336; conditions: cited from earlier work
compound,measurement,setting,value
"CC[C@H](C)[C@H]1O[C@]2(CC[C@@H]1C)C[C@@H]1C[C@@H](C/C=C(\C)[C@@H](O[C@H]3C[C@H](OC)[C@@H](O[C@H]4C[C@H](OC)[C@@H](O)[C@H](C)O4)[C@H](C)O3)[C@@H](C)/C=C/C=C3\CO[C@@H]4[C@H](O)C(C)=C[C@@H](C(=O)O1)[C@]34O)O2 [IVM, 5-O demethyl-22,23-dihydroavermectin A1a]",resting membrane currents in uninjected oocytes,uninjected oocytes,did not affect
same,surface expression levels of P2X4Rs in oocytes,P2X4Rs,did not change
same,antagonism of the inhibitory effects of ethanol,rat WT P2X4 receptor; IVM co-applied with ethanol (FIGS. 9A and B),antagonizes
same,"potentiation of ATP-induced currents, concentration dependence",rat WT P2X4 receptor,concentration dependent
same,IVM sensitivity compared to non-polar bulky substitutions,[1],approximately the same effect
same,degree of IVM potentiation compared to WT P2X4Rs,[2]; Met336 substituted with Ala or Val,markedly increased
same,sensitivity to IVM,[2]; Met336 substituted with Arg or Glu,eliminated sensitivity
same,degree of IVM potentiation compared to WT P2X4Rs,[2]; Met336 substituted with Phe or Trp,increased IVM potentiation
same,antagonism of the inhibitory effect of ethanol on ATP-activated currents,rat P2X4R; 0.5 μM IVM co-applied with 25 mM ethanol,completely antagonized
same,potentiation of ATP-gated currents in P2X4Rs,"rat P2X4R; 0.5 μM IVM, delivered separately, ATP EC10",31±4.9%
same,antagonism of the inhibitory effects of ethanol,"rat P2X4R; IVM 0.5 μM, 200 mM ethanol",did not significantly alter
same,antagonism of the inhibitory effects of ethanol,"rat P2X4R; IVM 0.5 μM, 50 and 100 mM ethanol",completely antagonized
same,effect on ATP-induced currents in P2X4R,rat P2X4R; IVM 3 μM applied individually,significantly potentiated
same,net result of exposure to both IVM and hexanol versus additive effects,rat P2X4R; IVM 3 μM with hexanol 10 mM,significantly less
same,combined action of IVM and ethanol versus estimated additive values of the individual effects,"rat P2X4R; IVM 0.5, 1 and 3 μM with ethanol 50, 100, 200 mM",significantly lower
same,antagonism of the inhibitory effects of ethanol,"rat P2X4R; IVM 1.0 and 3.0 μM, all ethanol concentrations (50-200 mM)",completely antagonizing
same,effect on EC10 ATP-gated currents in P2X4Rs,"rat P2X4R; IVM co-applied with ATP, concentration-dependent and reversible",significantly potentiated
same,average water consumption,C57BL/6 mice; IVM 10 mg/kg intraperitoneally,significant increase
same,ethanol intake,C57BL/6 mice; IVM 10 mg/kg intraperitoneally,non-significant reduction
same,daily 10E preference,"C57BL/6 mice; IVM 10 mg/kg intraperitoneally prior to each day of access, 4 days, versus saline",strong trend
same,10E preference on day 3,"C57BL/6 mice; IVM 10 mg/kg intraperitoneally, day 3",significantly lower
same,ethanol consumption,"C57BL/6 mice; single injection of IVM 2.5 mg/kg and 5.0 mg/kg, within subjects design, versus baseline with saline",significantly reduced
same,decrease in alcohol consumption,male C57BL/6 mice; IVM 2.5 mg/kg,32%
same,decrease in alcohol consumption,male C57BL/6 mice; IVM 10 mg/kg,50%
butanol,effect on P2X2R function,P2X2R,potentiates
same,effect on ATP-induced currents in P2X4R,rat P2X4R; butanol (C4) 50 mM,minimal effect
same,effect on ATP-induced currents in P2X4R,"rat P2X4R; butanol (C4) 50 mM, listed as Butanol",minimal effects
CCCCCCO [hexanol],effect on ATP-induced currents in P2X4R,rat P2X4R; hexanol (C6) 10 mM,significantly potentiated; also recorded: significant potentiation
CCCO [propanol],effect on P2X2R function,P2X2R,inhibit
CCO [ethanol],sensitivity of the receptor to ethanol,"[3]; Ala, Val at position 336",reduced
same,sensitivity of the receptor to ethanol,[3]; Arg or Glu at position 336,insensitive
same,effect on P2X2R function,P2X2R,inhibit
same,inhibition at 25000 µM,"rat P2X4R; 25 mM ethanol, delivered separately, ATP EC10, read-out: inhibition of ATP-gated currents in P2X4Rs",9 ± 2.3%
same,effect on ATP EC10-induced currents in P2X4Rs,"rat P2X4R; ethanol 25-200 mM co-applied with ATP, concentration-dependent and reversible",inhibited
same,effect on ATP-induced currents in P2X4R,rat P2X4R; ethanol (C2) 200 mM,inhibited
Selamectin,potency in modulating P2X4R activity relative to IVM (lower potency),rat WT P2X4 receptor,3-5 fold
same,antagonism of the inhibitory effects of ethanol,"rat WT P2X4 receptor; SEL at 3 and 10 mM, 50 mM ethanol, co-application",antagonistic effect
same,"potentiation of ATP-induced currents, concentration dependence",rat WT P2X4 receptor,small concentration-independent potentiation
same,potentiation of P2X4Rs,rat WT P2X4 receptor; only at 10 μM SEL during co-application,Significant potentiation
same,potentiation with the pre-incubation protocol versus co-application,rat WT P2X4 receptor; pre-incubation,higher potentiation
same,ethanol intake in mice,"male C57BL/6 mice; mouse, in vivo",no effect
Abamectin [ABM],antagonism of the inhibitory effects of ethanol,"rat WT P2X4 receptor; ABM 0.5 μM, 25 and 50 mM ethanol",antagonizes
same,antagonism of the inhibitory effects of ethanol,"rat WT P2X4 receptor; ABM 1.0 μM, all ethanol concentrations tested",able to antagonize
same,potency in modulating P2X4R activity relative to IVM (more potent),rat WT P2X4 receptor; higher concentrations (≧3 μM),3-10 fold
same,potentiation of P2X4R activity compared with IVM,rat WT P2X4 receptor; lower concentrations (0.5 and 1.0 μM),to the same degree as IVM
